Data published in patent publication EP0535528A1, “Antibacterial 5-Nitro-1-methyl-imidazolyl-3-terbutyl-2-hydroxy-aryl-carbinols” (EURORESEARCH S.r.L., priority 1991, dated 1993).
In brackets after ≈: the same amount, converted by molar mass.

Experiments:
[1] = system: Helicobapter pylori; assay: Minimal inhibiting concentration (agar dilution); format: cell-based
Protocol: Substances under examination: EU11100, EU11102, EU11103, EU11104. Comparison substance: Metronidazole Solubilization of the substances: All the substances to be studied are dissolved at room temperature in DMSO. […] 10 strains of Helicobapter pylori are used of recent clinical isolation […] The sowing of the bacteria, prepared as described in the preceding test is carried out by means a "multi-point inoculator". After 48 hours incubation under the condition described in the preceding test, the plates are examined and the Minimal Inhibiting Concentration is evaluated, namely that dose corresponding to growth absence.

[2] = system: Swiss female albino mice; assay: Oral and intraperitoneal acute toxicity in mice (LD50, Probits method); format: in vivo; conditions: mice
Protocol: 20 Swiss female albino mice are used for this test of the average weight of 20 g (±2), coming from Nossan breeding .
Cages: in Makrolon® with saw dust litter, Number of animals per cage: 5 Acclimation period: 1 week Temperature: 22°C (± 2°C) Humidity : 60%, Diet: pellets for mice produced by Nossan firm, Water ad libitum Fast before the treatment: 16 hours
Oral by gastric route and intraperitoneal.
The substances to be studied: EU11100, EU11102, EU11103, EU11104 are treated with 0.5% carboxymethylcellulose in spring water, for the oral administration, whereas the same substances are intraperitoneally administered in the form of a physiological solution .
For each of the above mentioned substances, a mother suspension is prepared having a concentration in the active ingredient of 250 mg/ml for the oral administration, and analogously a mother suspension is prepared for the intraperitoneal administration having a concentration of the desired active principle of 100 mg/ml.
The following doses are used • a) oral route: 5000 mg/kg • b) intraperitoneal route : 2000 mg/kg
If mortality is observed at the above mentioned doses, other doses are administered in order to obtain a dose-response curve.
5 animals are used for every utilized concentration.
After the administration of the above substances the animals are kept under observation for 14 days , during which the mortality and the behaviour is observed.
LD₅₀ is determined on the base of the cumulative mortality observed in the successive 14 days after the administration by using the Probits method.

[3] = system: Helicobapter pylori; assay: Inhibition halos of the bacterial growth (impregnated disks on agar); format: cell-based; conditions: for activity against the Helicobapter pylori strains used: 10 strains; for Inhibition halo (mm), Average: average of 10 strains
Protocol: Comparison substance: Metronidazole Solubilization of the substances : All the substances to be studied are dissolved at room temperature in DMSO.
Some commercially available antibiogram disks are so impregnated with the above mentioned compounds that each disk has concentration equal to 10, 1, 0.1, 0.01 µg.
10 strains of Helicobapter pylori are used of recent clinical isolation.
Columbia Blood Agar Base is used, containing 5% of defibrinated horse blood, 2 % of calf serum, 2 vials of Vitox per liter of medium and Vancomicine (10 µg/ml) Trimetoprim lactate(5 µg/ml) and Polimixin B (2.5 U/ml).
0.1 ml of a suspension of the different used strains are uniformly distributed onto Petri plates, containing 20 ml of Columbia Blood Agar base, obtained by taking a sample, by means of a platinum loop, of different colonies from a 48 hours culture, grown in anaerobiosis jars with "Gas Pack", without a catalyst and diluted into a physiological solution.
4 disks per plate, previously impregnated with the substances under examination, are then placed onto the agar layer of each plate.
After 48 hours of anaerobiosis incubation, as above described, the inhibition halos of the bacterial growth, produced by the different activity of the substances inside the agar, are evaluated.

Compound: Cn1c([N+](=O)[O-])cnc1C(O)c1cc(C(C)(C)C)cc(C(C)(C)C)c1O (stereo not shown) [EU11102, 5-nitro-1-methyl-imidazolyl-3,5-diterbutyl-2-hydroxy-phenyl-carbinol]
- MIC50 ([1]; 10 strains): 0.25 µg/mL (≈ 0.692 µM)
- MIC90 ([1]; 10 strains): 0.5 µg/mL (≈ 1.38 µM)
- MIC range ([1]; 10 strains): 0.25 to 0.5 µg/mL
- MIC ([1]; strain 1): 0.5 µg/mL (≈ 1.38 µM)
- MIC ([1]; strain 2): 0.25 µg/mL (≈ 0.692 µM)
- MIC ([1]; strain 3): 0.25 µg/mL (≈ 0.692 µM)
- MIC ([1]; strain 4): 0.5 µg/mL (≈ 1.38 µM)
- MIC ([1]; strain 5): 0.25 µg/mL (≈ 0.692 µM)
- MIC ([1]; strain 6): 0.5 µg/mL (≈ 1.38 µM)
- MIC ([1]; strain 7): 0.25 µg/mL (≈ 0.692 µM)
- MIC ([1]; strain 8): 0.25 µg/mL (≈ 0.692 µM)
- MIC ([1]; strain 9): 0.25 µg/mL (≈ 0.692 µM)
- MIC ([1]; strain 10): 0.25 µg/mL (≈ 0.692 µM)
- toxicity when intraperitoneally administered ([2]; intraperitoneal, 2000 mg/kg): not toxic
- toxicity when orally administered ([2]; oral, 5000 mg/kg): not toxic
- activity against the Helicobapter pylori strains used ([3]; 1 µg/disk): active against all the Helicobapter pylori used
- activity against the Helicobapter pylori strains used ([3]; disk test): active against all the Helicobapter pylori strains used
- Inhibition halo (mm), Average ([3]; 1 µg/disk): 15.1 mm
- Inhibition halo (mm), Average ([3]; 10 µg/disk): 22.9 mm
- Inhibition halo (mm) at the concentration (µg/disk) ([3]; strain 1, 0.01 µg/disk): 0 mm
- Inhibition halo (mm) at the concentration (µg/disk) ([3]; strain 1, 0.1 µg/disk): 0 mm
- Inhibition halo (mm) at the concentration (µg/disk) ([3]; strain 1, 1 µg/disk): 15 mm
- Inhibition halo (mm) at the concentration (µg/disk) ([3]; strain 1, 10 µg/disk): 23 mm
- Inhibition halo (mm) at the concentration (µg/disk) ([3]; strain 2, 0.01 µg/disk): 0 mm
- Inhibition halo (mm) at the concentration (µg/disk) ([3]; strain 2, 0.1 µg/disk): 0 mm
- Inhibition halo (mm) at the concentration (µg/disk) ([3]; strain 2, 10 µg/disk): 22 mm
- Inhibition halo (mm) at the concentration (µg/disk) ([3]; strain 3, 0.01 µg/disk): 0 mm
- Inhibition halo (mm) at the concentration (µg/disk) ([3]; strain 3, 0.1 µg/disk): 0 mm
- Inhibition halo (mm) at the concentration (µg/disk) ([3]; strain 3, 1 µg/disk): 12 mm
- Inhibition halo (mm) at the concentration (µg/disk) ([3]; strain 3, 10 µg/disk): 22 mm
- Inhibition halo (mm) at the concentration (µg/disk) ([3]; strain 4, 0.01 µg/disk): 0 mm
- Inhibition halo (mm) at the concentration (µg/disk) ([3]; strain 4, 0.1 µg/disk): 0 mm
- Inhibition halo (mm) at the concentration (µg/disk) ([3]; strain 4, 1 µg/disk): 16 mm
- Inhibition halo (mm) at the concentration (µg/disk) ([3]; strain 4, 10 µg/disk): 24 mm
- Inhibition halo (mm) at the concentration (µg/disk) ([3]; strain 5, 0.01 µg/disk): 0 mm
- Inhibition halo (mm) at the concentration (µg/disk) ([3]; strain 5, 0.1 µg/disk): 0 mm
- Inhibition halo (mm) at the concentration (µg/disk) ([3]; strain 5, 1 µg/disk): 16 mm
- Inhibition halo (mm) at the concentration (µg/disk) ([3]; strain 5, 10 µg/disk): 22 mm
- Inhibition halo (mm) at the concentration (µg/disk) ([3]; strain 6, 0.01 µg/disk): 0 mm
- Inhibition halo (mm) at the concentration (µg/disk) ([3]; strain 6, 0.1 µg/disk): 0 mm
- Inhibition halo (mm) at the concentration (µg/disk) ([3]; strain 6, 1 µg/disk): 17 mm
- Inhibition halo (mm) at the concentration (µg/disk) ([3]; strain 6, 10 µg/disk): 25 mm
- Inhibition halo (mm) at the concentration (µg/disk) ([3]; strain 7, 0.01 µg/disk): 0 mm
- Inhibition halo (mm) at the concentration (µg/disk) ([3]; strain 7, 0.1 µg/disk): 0 mm
- Inhibition halo (mm) at the concentration (µg/disk) ([3]; strain 7, 1 µg/disk): 14 mm
- Inhibition halo (mm) at the concentration (µg/disk) ([3]; strain 7, 10 µg/disk): 21 mm
- Inhibition halo (mm) at the concentration (µg/disk) ([3]; strain 8, 0.01 µg/disk): 0 mm
- Inhibition halo (mm) at the concentration (µg/disk) ([3]; strain 8, 0.1 µg/disk): 0 mm
- Inhibition halo (mm) at the concentration (µg/disk) ([3]; strain 8, 1 µg/disk): 15 mm
- Inhibition halo (mm) at the concentration (µg/disk) ([3]; strain 8, 10 µg/disk): 23 mm
- Inhibition halo (mm) at the concentration (µg/disk) ([3]; strain 9, 0.01 µg/disk): 0 mm
- Inhibition halo (mm) at the concentration (µg/disk) ([3]; strain 9, 0.1 µg/disk): 0 mm
- Inhibition halo (mm) at the concentration (µg/disk) ([3]; strain 9, 1 µg/disk): 16 mm
- Inhibition halo (mm) at the concentration (µg/disk) ([3]; strain 9, 10 µg/disk): 24 mm
- Inhibition halo (mm) at the concentration (µg/disk) ([3]; strain 10, 0.01 µg/disk): 0 mm
- Inhibition halo (mm) at the concentration (µg/disk) ([3]; strain 10, 0.1 µg/disk): 0 mm
- Inhibition halo (mm) at the concentration (µg/disk) ([3]; strain 10, 1 µg/disk): 15 mm
- Inhibition halo (mm) at the concentration (µg/disk) ([3]; strain 10, 10 µg/disk): 23 mm
